This passage reports IC50 results from PMC12442245, “Activity Analysis of the P2X Receptor Antagonist PPADS against Signal Transducer and Activator of Transcription Proteins” (Chembiochem, 2025).

What all share (format): binding
One experiment has as its target T1, STAT5a (Homo sapiens, UniProt P42229).
T1 sequence (P42229 1-794): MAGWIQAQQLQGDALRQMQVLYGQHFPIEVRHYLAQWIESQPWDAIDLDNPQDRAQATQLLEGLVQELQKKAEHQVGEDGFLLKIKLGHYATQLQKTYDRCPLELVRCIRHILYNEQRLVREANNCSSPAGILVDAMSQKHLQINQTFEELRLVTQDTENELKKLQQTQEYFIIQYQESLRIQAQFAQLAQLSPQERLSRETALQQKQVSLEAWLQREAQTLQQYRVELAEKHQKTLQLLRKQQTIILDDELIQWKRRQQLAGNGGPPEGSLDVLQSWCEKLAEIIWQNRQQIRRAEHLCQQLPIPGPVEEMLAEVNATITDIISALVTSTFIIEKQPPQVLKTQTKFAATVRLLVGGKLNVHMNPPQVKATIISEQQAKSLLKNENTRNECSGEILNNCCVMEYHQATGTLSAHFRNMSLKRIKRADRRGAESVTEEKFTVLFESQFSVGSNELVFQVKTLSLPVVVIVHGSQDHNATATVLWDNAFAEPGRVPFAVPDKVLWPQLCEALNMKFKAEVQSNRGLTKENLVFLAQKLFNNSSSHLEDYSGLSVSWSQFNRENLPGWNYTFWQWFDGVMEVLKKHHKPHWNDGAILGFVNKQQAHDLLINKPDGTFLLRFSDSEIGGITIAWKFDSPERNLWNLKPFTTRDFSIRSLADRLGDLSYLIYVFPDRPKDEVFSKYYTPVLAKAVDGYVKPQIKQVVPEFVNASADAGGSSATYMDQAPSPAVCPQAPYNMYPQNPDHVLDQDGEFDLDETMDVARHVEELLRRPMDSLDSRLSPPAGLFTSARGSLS
The experiment is described as follows: HTRF assay, STAT5a. Particulars: STAT5a 110 nM, without reducing agent, 1 h. The text has this:
(§1) The azo dyes PPADS and iso‐PPADS have a deep red color in aqueous solution. […] In order to exclude this possibility, we established homogeneous time‐resolved fluorescence resonance energy transfer (HTRF) assays to confirm the degree of binding between STAT4, STAT5a, and STAT5b and the respective 5‐carboxyfluorescein‐labeled binding peptides used in the FP assay. In addition, an HTRF assay was established for STAT3, one of the STAT proteins targeted to a lesser extent in FP assays, as a specificity control (Figure 1B,C). The STAT protein constructs each contain a 6x‐His‐tag.^[ [15], [16], [17], [22] ^] A Tb^3+‐cryptate fused to an anti‐6x‐His antibody was chosen as the long‐lived fluorescent donor, while the carboxyfluorescein linked to the respective STAT‐binding peptides served as the acceptor (Figure 2A). Emission was measured with a time delay of 60 μs after excitation, allowing any initial compound fluorescence to decay beforehand. […]
(§2) Screening of chemical libraries comprising approximately 5000 known bioactive compounds in fluorescence polarization-based assays against phosphorylation-dependent protein-protein interaction domains, including STAT proteins, has been described.[1] […]
(§3) Fluorescence polarization assays
(§4) Competitive fluorescence polarization (FP) assays for STAT1,[2] […] Briefly, peptide binding to proteins was analyzed using the following carboxyfluorescein (CF) -labelled pepti des at a concentration of 10 nM: STAT1: 5-CF-GpYDKPHVL-OH, STAT3: 5-CF-GpYLPQTV -NH2, STAT4: 5-CF-GpYLPQNID-OH, STAT5a and STAT5b: 5-CF-GpYLVLDKW-OH, STAT6: 5- […]
(§5) CFGp[…]-OH. […] FP was measured using an Infinite F500 plate reader (Tecan) and measurements were converted into percent inhibition according to the binding curve equation. Curves were plotted and best fits calculated using OriginPro […]
(§6) Homogenous time-resolved fluorescence (HTRF) assays for STAT3, STAT4, STAT5a and STAT5b were carried out using Cisbio Monoclonal Antibody Anti-6His-Tb Gold as the fluorescence donor (Perkin Elmer) and the corresponding CF-labelled binding peptide as the acceptor. […] The average reading from 3 wells was obtained. […]
(TR-FRET usually uses a lanthanide donor and a delayed reading to cut background.)

In another experiment the target is T2, STAT5b (Homo sapiens, UniProt P51692).
T2 sequence (P51692 1-787): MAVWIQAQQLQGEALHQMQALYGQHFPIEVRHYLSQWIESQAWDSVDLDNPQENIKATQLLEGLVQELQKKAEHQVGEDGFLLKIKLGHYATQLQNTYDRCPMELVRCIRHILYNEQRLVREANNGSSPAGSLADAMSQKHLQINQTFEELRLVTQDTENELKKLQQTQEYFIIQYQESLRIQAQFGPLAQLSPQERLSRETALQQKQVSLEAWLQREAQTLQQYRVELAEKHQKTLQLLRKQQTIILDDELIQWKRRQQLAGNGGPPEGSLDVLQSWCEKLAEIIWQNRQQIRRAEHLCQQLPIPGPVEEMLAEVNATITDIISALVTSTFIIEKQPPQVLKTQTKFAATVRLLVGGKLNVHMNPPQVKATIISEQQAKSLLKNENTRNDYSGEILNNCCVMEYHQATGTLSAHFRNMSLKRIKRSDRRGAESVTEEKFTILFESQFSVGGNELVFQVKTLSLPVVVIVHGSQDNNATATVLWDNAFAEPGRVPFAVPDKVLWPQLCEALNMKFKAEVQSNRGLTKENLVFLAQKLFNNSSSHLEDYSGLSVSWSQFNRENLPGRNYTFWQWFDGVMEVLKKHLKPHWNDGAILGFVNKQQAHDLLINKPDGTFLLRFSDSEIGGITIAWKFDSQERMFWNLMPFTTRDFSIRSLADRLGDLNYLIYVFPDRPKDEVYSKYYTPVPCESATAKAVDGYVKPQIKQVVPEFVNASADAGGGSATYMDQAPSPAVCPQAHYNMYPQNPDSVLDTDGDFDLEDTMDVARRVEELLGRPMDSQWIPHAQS
Nature of the experiment: HTRF assay, STAT5b. Particulars: STAT5b 80 nM, without reducing agent, 1 h.
Text: as §1, §2, §3, §4, §5, §6

The next experiment concerns the target T3, STAT4 (Homo sapiens, UniProt Q14765).
T3 sequence (Q14765 1-748): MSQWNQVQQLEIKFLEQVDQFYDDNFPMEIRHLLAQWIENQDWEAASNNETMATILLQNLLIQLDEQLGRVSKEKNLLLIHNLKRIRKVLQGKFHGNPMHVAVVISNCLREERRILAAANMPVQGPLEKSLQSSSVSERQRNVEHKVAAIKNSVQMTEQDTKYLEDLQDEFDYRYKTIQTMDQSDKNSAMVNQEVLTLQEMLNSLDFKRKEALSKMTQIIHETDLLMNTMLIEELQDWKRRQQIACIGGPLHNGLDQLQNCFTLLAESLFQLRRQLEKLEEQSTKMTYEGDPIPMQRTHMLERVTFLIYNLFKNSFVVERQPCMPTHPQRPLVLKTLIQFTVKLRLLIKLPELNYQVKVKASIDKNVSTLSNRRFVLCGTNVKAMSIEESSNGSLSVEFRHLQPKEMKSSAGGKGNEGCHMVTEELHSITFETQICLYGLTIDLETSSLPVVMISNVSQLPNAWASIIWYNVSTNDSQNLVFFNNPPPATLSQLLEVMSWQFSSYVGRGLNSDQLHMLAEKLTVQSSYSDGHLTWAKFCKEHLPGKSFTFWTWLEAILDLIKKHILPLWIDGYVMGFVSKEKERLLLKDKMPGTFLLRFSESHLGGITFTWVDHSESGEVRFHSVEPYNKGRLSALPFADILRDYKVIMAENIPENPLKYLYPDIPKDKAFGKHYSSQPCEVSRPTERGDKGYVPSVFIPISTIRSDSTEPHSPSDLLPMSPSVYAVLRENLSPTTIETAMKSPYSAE
Nature of the experiment: HTRF assay, STAT4. Particulars: STAT4 30 nM, without reducing agent, 1 h.
Text: as §1, §2, §3, §4, §5, §6

The IC50 is the point on the concentration scale where inhibition reaches its midpoint.

Non-standard residues stand in square brackets, D forms with d. Residues, ends and D or L forms follow the SMILES beside them. pY = N[C@@H](Cc1ccc(OP(=O)(O)O)cc1)C(=O)O

Turning to `CC(C)C[C@H](NC(=O)[C@H](Cc1c[nH]c2ccccc12)NC(=O)[C@H](CCCCN)NC(=O)[C@H](CC(=O)O)NC(=O)[C@H](CC(C)C)NC(=O)[C@@H](NC(=O)[C@H](CC(C)C)NC(=O)[C@H](Cc1ccc(OP(=O)(O)O)cc1)NC(=O)[C@@H](NC(=O)[C@@H](N)CC(=O)O)[C@@H](C)O)C(C)C)C(=O)O` (H-DT[pY]LVLDKWL-OH), the values for the IC50 on STAT5a and at STAT5b were 2480 ± 270 nM and 4180 ± 250 nM, respectively.
The compound `CC[C@H](C)[C@H](NC(=O)[C@H](CC(N)=O)NC(=O)[C@H](CCC(N)=O)NC(=O)[C@@H]1CCCN1C(=O)[C@H](CC(C)C)NC(=O)[C@H](Cc1ccc(OP(=O)(O)O)cc1)NC(=O)CNC(C)=O)C(=O)N[C@@H](CC(=O)O)C(=O)O` [Ac‐GpYLPQNID] (Ac-G[pY]LPQNID-OH) had a 50% inhibitory concentration (IC50) on STAT4 of 2010 ± 80 nM.
